pKi: −log10 of the molar value.
Tests used:
D4 receptors = assay: Assay for D2 and D4 receptor binding activity (COS cells, 3H-YM 09151-2), D4; design: species or system African Green monkey; settings: recombinant D4 in COS cells; 0.5 nM 3H-YM 09151-2; read-out: D4 K1
Method: (§1) Assay For D2 And D4 Receptor Binding Activity
(§2) Pellets of COS cells containing recombinantly produced D2 or D4 receptors from African Green monkey were used for the assays. The sample is homogenized in 100 volumes (w/vol) of 0.05 M Tris HCl buffer at 4° C. and pH 7.4. The sample is then centrifuged at 30,000×g and resuspended and rehomogenized. The sample is then centrifuged as described and the final tissue sample is frozen until use. The tissue is resuspended 1:20 (wt/vol) in 0.05 M Tris HCl buffer containing 100 mM NaCl.
(§3) Incubations are carried out at 48° C. and contain 0.4 ml of tissue sample, 0.5 nM ^3H-YM 09151-2 and the compound of interest in a total incubation of 1.0 ml. Non-specific binding is defined as that binding found in the presence of […] spiperone; without further additions, nonspecific binding is less than 20% of total binding.

D2 receptors = molecular target: T1, D2 receptors (Chlorocebus aethiops, UniProt P52702); assay: Assay for D2 and D4 receptor binding activity (COS cells, 3H-YM 09151-2), D2; design: species or system African Green monkey; settings: recombinant D2 in COS cells; 0.5 nM 3H-YM 09151-2
T1 construct: expressed in transfected cells; host or cells: COS cells
T1 sequence (P52702 whole entry): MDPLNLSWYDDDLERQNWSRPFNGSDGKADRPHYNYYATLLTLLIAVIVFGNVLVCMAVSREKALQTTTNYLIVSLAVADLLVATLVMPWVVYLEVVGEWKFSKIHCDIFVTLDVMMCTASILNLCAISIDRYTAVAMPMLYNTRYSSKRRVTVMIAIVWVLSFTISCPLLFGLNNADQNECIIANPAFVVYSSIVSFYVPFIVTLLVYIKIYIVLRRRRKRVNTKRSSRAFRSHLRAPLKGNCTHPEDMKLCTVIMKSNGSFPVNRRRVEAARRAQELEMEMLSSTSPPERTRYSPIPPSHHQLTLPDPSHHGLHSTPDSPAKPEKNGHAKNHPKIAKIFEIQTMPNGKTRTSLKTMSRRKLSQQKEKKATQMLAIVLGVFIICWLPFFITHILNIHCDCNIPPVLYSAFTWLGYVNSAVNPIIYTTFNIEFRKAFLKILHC
Method: as §1, §2, §3

| Molecule | melting point [°C] | pKi (D4 receptors) | pKi (D2 receptors) |
| --- | --- | --- | --- |
| CN(CCCc1ccccc1)CCNC1=NCc2ccccc21 [Compound 3, 1-(N-[2-{N′-(3-phenylpropyl)-N′-methyl}aminoethyl])aminoisoindole dioxolate] | 175 to 177 | – | – |
| 1-(1-[3-{(4-Pyridin-2-yl)piperazin-1-yl}]propyl)aminoisoquinoline hydrobromide [Compound 10] | – | 8.70 | 6.11 |
| 1-(1-[2-{(4-[5-Fluoropyrimidin-2-yl])piperazin-1-yl}]ethyl)aminoisoquinoline hydrobromide [Compound 9] | – | 7.89 | 5.83 |

— patent US6441175B1, “1-(N'-arylalkylaminoalkyl)aminoisoquinolines: a new class of dopamine receptor subtype” (Neurogen Corporation, priority 1997, dated 2002)
